Source: PubChem BioAssay (NCI)
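Method: 48-hour compound exposure of cells in 96-well plates, five concentrations, linear interpolation of endpoints. GI50: concentration for 50% inhibition of growth. TGI marks complete inhibition of growth.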 Where a SMILES comes first, the peptide text is derived from it.

Legend:
Experiment in all cases: inhibition of tumour cell growth, NCI panel, 48 h
NCI/ADR-RES ovarian = system: NCI/ADR-RES ovarian
SK-MEL-5 melanoma = system: SK-MEL-5 melanoma
SF-268 CNS = system: SF-268 CNS
MALME-3M melanoma = system: MALME-3M melanoma
HOP-62 NSCLC = system: HOP-62 NSCLC
MDA-N = system: MDA-N
LOX IMVI melanoma = system: LOX IMVI melanoma
NCI-H460 lung = system: NCI-H460 lung
TK-10 renal = system: TK-10 renal
OVCAR-8 ovarian = system: OVCAR-8 ovarian

Compound	TGI (NCI/ADR-RES ovarian) [µM]	TGI (SK-MEL-5 melanoma) [µM]	TGI (SF-268 CNS) [µM]	TGI (MALME-3M melanoma) [µM]	TGI (HOP-62 NSCLC) [µM]	TGI (MDA-N) [µM]	TGI (LOX IMVI melanoma) [µM]	TGI (NCI-H460 lung) [µM]	TGI (TK-10 renal) [µM]	TGI (OVCAR-8 ovarian) [µM]	GI50 (NCI/ADR-RES ovarian) [µM]	GI50 (SK-MEL-5 melanoma) [µM]	GI50 (SF-268 CNS) [µM]	GI50 (MALME-3M melanoma) [µM]	GI50 (HOP-62 NSCLC) [µM]	GI50 (LOX IMVI melanoma) [µM]	GI50 (NCI-H460 lung) [µM]	GI50 (TK-10 renal) [µM]	GI50 (OVCAR-8 ovarian) [µM]
Cc1ccc(/C=C2\CN(C)CC3=C2OC(N)=C(C#N)C3c2ccc(C)cc2)cc1 (configuration not stated)	> 100	> 100	> 100	37.2	52.7	38.1	27.2	34.3	> 80.8	> 92	–	–	–	–	–	–	–	–	–
CCOC(=O)c1c(C)n(Cc2ccccc2)c(=O)c2ccccc2c(=O)c2c(=O)ccc(=O)c1=2	> 100	> 100	> 100	41.9	> 100	> 100	53.5	> 100	54	> 100	–	–	–	–	–	–	–	–	–
CCN(CC)c1ccc(/C=C(\C#N)c2nc(N)nc(N3N=C(C)CC3(C)C)n2)cc1	> 49.4	> 61	> 54	41	23.6	> 100	32.7	44.5	31.7	24.4	–	–	–	–	–	–	–	–	–
Cc1c(N2C(=O)/C(=C/C=C/c3ccccc3)N=C2c2ccccc2)c(=O)n(-c2ccccc2)n1C	55	30.8	68.9	92.2	85.3	38.3	52	> 100	> 100	77.6	–	–	–	–	–	–	–	–	–
CC(C)=CCC[C@]1(C)CC[C@]2(C)C3CCC(=C(C)C)[C@@H](CCCO)[C@]3(C)CC[C@@]2(C)C1 (some centres not stated)	> 100	> 100	> 100	> 100	> 100	> 100	–	> 100	44.3	> 100	–	–	–	–	–	–	–	–	–
CSC1=N/C(=C\c2ccc(C)cc2)C(=O)N1CN1CCOCC1	> 100	> 100	> 100	> 100	> 100	> 100	> 100	–	> 100	> 100	–	–	–	–	–	–	–	–	–
CCN(CC)C(=S)SS(=O)(=O)c1ccccc1C(=O)O	> 100	> 100	> 100	> 100	> 100	> 100	> 100	> 100	> 100	> 100	–	–	–	–	–	–	–	–	–
Cc1ccc2c(c1)SSSSS2	66.7	35.8	60.5	44.6	38	87.1	34.4	32.5	37.9	53.7	–	–	–	–	–	–	–	–	–
CSc1ccc2c(cc1=O)[C@@H](NC(C)=O)CCc1cc(O)c(O)c(O)c1-2	58.3	> 100	38.6	> 100	32.3	61.1	> 100	36.2	34.6	42.3	–	–	–	–	–	–	–	–	–
COC(CN(C)C(=O)C(C)NC(=O)c1ccccc1)OC (configuration not stated)	> 100	> 100	> 100	> 100	–	> 100	–	> 100	> 100	> 100	–	–	–	–	–	–	–	–	–
O=c1[nH]c2ccc(C(F)(F)F)cc2nc1-c1ccccc1	> 100	> 100	> 100	> 100	> 100	> 100	> 100	> 100	> 100	> 100	–	–	–	–	–	–	–	–	–
C=C1C(=O)O[C@@H]2[C@H]3O[C@]3(C)CCC=C(C)CC[C@@H]12	45.3	49.1	62.6	25.3	102	–	21.2	56.4	–	43.9	–	–	–	–	–	–	–	–	–
NC(=O)NC(=O)c1cnccn1	> 100	–	> 100	> 100	> 100	> 100	> 100	> 100	> 100	–	–	–	–	–	–	–	–	–	–
CC1=C2C(O)C(C(C)C(=O)NCC(C)C)CCC2(C)C=CC1=O (configuration not stated)	> 100	> 100	> 100	–	> 100	–	> 100	> 100	–	> 100	–	–	–	–	–	–	–	–	–
CC/C(=N\NC(=O)c1cccnc1)c1ccc2c(c1)OCCO2	> 100	> 100	> 100	91.5	> 100	> 100	> 100	> 100	> 100	> 100	–	–	–	–	–	–	–	–	–
CN(C)CCCNc1c(O)c2c(c(O)c1Cl)C(=O)C=CC2=O	5.38	2.82	–	3.25	7.87	6.38	3.13	3.81	> 10	9.69	–	–	–	–	–	–	–	–	–
CN1C2CCC1CC(OC(c1ccccc1)c1ccccc1)C2 (configuration not stated)	34.3	29.1	41.5	28.1	43	28.8	29.4	–	44.5	29.9	–	–	–	–	–	–	–	–	–
CCc1ccc(-c2nnc(COc3ccc(-c4nc5ccc(C)cc5[nH]4)cc3OC)o2)cc1	37.5	4.09	> 100	3.11	6.46	–	4.25	18.4	5.61	> 100	3.28	1.97	4.47	1.56	2.44	1.98	3.38	2.72	5.08
C=C(O)c1ccccc1C#Cc1ccccc1C(=O)OC	> 10	> 10	> 10	> 10	> 10	> 10	> 10	> 10	> 10	> 10	–	–	–	–	–	–	–	–	–
CC1NC(=O)CNC(=O)CNC(=O)C(Cc2ccc(O)cc2)NC(=O)C(C(C)C)NC(=O)C(C)NC1=O (configuration not stated) (cyclo(GGAAVY); configuration not given here)	> 100	> 100	> 100	> 100	> 100	–	> 100	> 100	–	> 100	–	–	–	> 100	–	–	–	–	–
CN(C1=NCCO1)c1cccc2ccccc12	> 10	> 10	> 10	> 10	> 10	> 10	> 10	> 10	> 10	> 10	–	–	–	–	–	–	–	–	–
NC(=S)/N=C/c1c(O)c2ccccc2oc1=O	–	> 100	> 100	99.4	–	–	> 100	> 100	> 100	> 100	–	–	–	–	–	–	–	–	–
c1ccc(COc2ccc(CC3SCCCS3)cc2)cc1	–	> 100	> 100	> 100	> 100	> 100	> 100	> 100	> 100	> 100	–	–	–	–	–	–	–	–	–
O=C(NN=C1CCN(Cc2ccccc2)CC1)C(O)(c1ccccc1)c1ccccc1	> 100	> 100	> 100	> 100	> 100	–	> 100	–	> 100	> 100	–	–	–	–	–	–	–	–	–

Compound	TGI (NCI/ADR-RES ovarian) [µM]	TGI (SK-MEL-5 melanoma) [µM]	TGI (SF-268 CNS) [µM]	TGI (MALME-3M melanoma) [µM]	TGI (HOP-62 NSCLC) [µM]	TGI (MDA-N) [µM]	TGI (LOX IMVI melanoma) [µM]	TGI (NCI-H460 lung) [µM]	TGI (TK-10 renal) [µM]	TGI (OVCAR-8 ovarian) [µM]	GI50 (NCI/ADR-RES ovarian) [µM]	GI50 (SK-MEL-5 melanoma) [µM]	GI50 (SF-268 CNS) [µM]	GI50 (MALME-3M melanoma) [µM]	GI50 (HOP-62 NSCLC) [µM]	GI50 (LOX IMVI melanoma) [µM]	GI50 (NCI-H460 lung) [µM]	GI50 (TK-10 renal) [µM]	GI50 (OVCAR-8 ovarian) [µM]
Cc1cc2nc3n[nH]c(N)c3nc2cc1C	> 100	–	> 100	> 100	> 100	> 100	> 100	> 100	> 100	> 100	–	–	–	–	–	–	–	–	–
COc1c2c(c(OC)c3c1c(=O)c1ccccc1n3C)OCO2	> 100	15.7	> 100	–	> 100	–	> 100	51.2	> 100	> 100	–	–	–	–	–	–	–	–	–
CCCCCC(CN1CCOCC1)C(=O)/C=C/c1ccccc1 (configuration not stated)	–	3.42	5.02	6.42	16.9	–	2.67	11.1	–	–	–	–	–	–	–	–	–	–	–
O=C1C=CC(=O)c2c1ccc1c3ccccc3n(-c3ccccn3)c21	–	–	> 100	32.7	–	–	–	> 100	30.5	> 100	–	–	–	–	–	–	–	–	–
CC(=O)/C(C=Nc1c(C)n(C)n(-c2ccccc2)c1=O)=C(/C)O	> 100	> 100	–	> 100	–	–	> 100	–	> 100	> 100	–	–	–	–	–	–	–	–	–
Cc1cc(-c2ccc(C(=O)O)[nH]2)on1	75.9	> 100	> 100	> 100	> 100	23.7	–	> 100	> 100	> 100	–	–	–	–	–	–	–	–	–
c1ccc2c(c1)ccc1nc(-c3ccc4c(c3)OCO4)c3c(c12)CCCC3	> 100	–	88.1	63.2	> 100	> 100	–	> 100	–	> 100	–	–	–	–	–	–	–	–	–
CN(C)c1ccc(-c2cc(=O)c3ccccc3[nH]2)cc1	–	–	> 100	> 100	> 100	–	> 100	> 100	> 100	> 100	–	–	–	–	–	–	–	–	–
Cn1c(=O)oc2cc(C(=O)CSC(=S)N3CCCCCC3)ccc21	> 100	> 100	> 100	> 100	> 100	> 100	–	> 100	> 100	> 100	–	–	–	–	–	–	–	–	–
CCCCCCCCCOC(=O)c1cnc(Cl)cn1	48.2	32.9	46.3	39.4	44.9	–	34.4	41.5	43.9	69.6	–	–	–	–	–	–	–	–	–
CC(C(=O)N1C(=O)N(C(=O)C(C)C(O)c2ccccc2)C(c2ccccc2)C1c1ccccc1)C(O)c1ccccc1 (configuration not stated)	–	–	> 100	32.3	> 100	–	24.2	19.9	> 100	> 100	–	–	–	–	–	–	–	–	–
NC(N)=NCCCC(N=c1c2ccccc2n(O)c2ccccc12)C(=O)O (configuration not stated)	–	66.6	> 100	> 100	> 100	–	> 100	> 100	> 100	> 100	–	–	–	–	–	–	–	–	–
CCOC(=O)c1nc2cc(N3CCOCC3)c(F)cc2[nH]c1=O	> 100	> 100	> 100	> 100	> 100	> 100	–	> 100	> 100	> 100	–	–	–	–	–	–	–	–	–
CCN(CC)CCn1c(C(C)(C)C)nc2ccccc21	> 100	–	> 100	> 100	> 100	> 100	–	> 100	> 100	> 100	–	–	–	–	–	–	–	–	–
C=C[C@@H]1OC(=O)O[C@H]1CO	> 100	> 100	> 100	> 100	> 100	> 100	> 100	–	> 100	> 100	–	–	–	–	–	–	–	–	–
C=CC1(C)CCC(C(C)C(=O)C(C=C(C)C)OC(C)=O)C12C(=O)Oc1ccccc1C2=O (configuration not stated)	–	–	> 100	> 100	> 100	–	> 100	> 100	> 100	> 100	–	–	–	–	–	–	–	–	–
CCOC(=O)CN1CCNCCN(CC(=O)OCC)CCNCC1	> 100	> 100	–	–	> 100	> 100	> 100	> 100	> 100	> 100	–	–	–	–	–	–	–	–	–
COC(=O)c1ccccc1C1CN=NC12Cc1ccc3ccccc3c1C2=O (configuration not stated)	> 100	> 100	> 100	> 100	–	> 100	> 100	> 100	> 100	> 100	–	–	–	–	–	–	–	–	–
Cc1[nH]c2ncn3nc(C(Cl)(Cl)Cl)nc3c2c1Cc1ccccc1	> 100	> 100	> 100	> 100	> 100	> 100	–	> 100	> 100	> 100	–	–	–	–	–	–	–	–	–
COc1ccc2c(c1)C(N)CC2=O (configuration not stated)	> 100	> 100	> 100	–	> 100	–	–	–	> 100	> 100	–	–	–	–	–	–	–	–	–
Cc1ccc(C)c(NC(=O)C(=O)C2C(=O)C3=C(CC2(C)C)Nc2ccccc2S3)c1 (configuration not stated)	> 100	> 100	> 100	–	> 100	> 100	> 100	> 100	> 100	> 100	–	–	–	–	–	–	–	–	–
CC(=O)ON(OC(C)=O)c1ccc(C)cc1	> 100	> 100	> 100	> 100	> 100	> 100	–	> 100	> 100	> 100	–	–	–	–	–	–	–	–	–
COc1c(CC=C(C)C)c(O)c(C(CC(C)C)c2c(O)c(C(C)=O)c(O)c3c2OC(C(C)(C)O)C3)c(O)c1C(C)=O (configuration not stated)	12.2	8.24	> 12.5	> 12.5	–	> 12.5	> 12.5	> 12.5	–	> 12.5	–	–	–	–	–	–	–	–	–
NCc1ccc(-c2ccc(-c3ccc(-c4ccc(CN)s4)s3)s2)s1	> 100	> 100	–	> 100	> 100	> 100	> 100	–	> 100	> 100	–	–	–	–	–	–	–	–	–
